Data reported in patent US20240251790A1 (priority 2021, published 2024).

Assays:
Format in all cases: cell-based
coliforms (ECC) = tested on: coliforms (ECC)
yeast and mold (YM) = tested on: yeast and mold (YM)
[1] = tested on: total microbial count (APC)

## Percitric acid [PCA]
Coliforms (ECC)
  efficiency against ECC: efficient
Yeast and mold (YM)
  effect on YM: minimal effect
[1]
  efficiency against APC: efficient
